Source: US20250041311A1, “Compound For Treating or Preventing Vimentin-Mediated Diseases” (Aluda Pharmaceuticals, Inc., priority 2021, published 2025)
Entries after “also recorded” stand apart in the source; their conditions may differ.

What was measured:
[1] = tested on: A549, AGS, U87, SMMC-7721, HUH7; experiment: Cancer cell growth in vitro; assay type: cell-based, human; conditions: any concentration, highest 10 μM
Experimental: (§1) Cell culture: Human non-small cell lung cancer A549 cells, human pancreatic cancer PANC-1 cells, human glioma U87 cells, human liver cancer HUH7 cells and SMMC-7721 cells, and human gastric cancer AGS cells were purchased from ATCC or Stem Cell Bank of Chinese Academy of Sciences (Shanghai, China). Cells were cultured in RPMI1640 medium containing 10% fetal bovine serum (Sigma, USA), 100 U penicillin and 100 μg/ml streptomycin (Gibco, USA) at 37° C. in a humidified atmosphere containing 5% CO2.

[2] = tested on: 84 selected human cancer-associated proteins in A549 cells; conditions: 3 μM C52 or 5 μM C52 for 48 h
Experimental: as §1
A total of 200 g of lysate protein was run on one Human XL Tumor Array (R&D Systems, Abingdon, UK). Followed the manufacturer's instructions exactly. The protein chip membrane was covered with plastic film and exposed to X-ray film for 8 minutes. Optical density on exposed X-ray film (hu.q, HQ-320XT, China) was quantified using a transmission mode scanner (EPSON, Beijing, China) and analyzed using Image J software.

DSS-induced colitis mice = experiment: DSS-induced colitis mouse model; assay type: in vivo; conditions: 3 mg/kg C52 intragastric, 14 days
Experimental: Male BALB/c mice aged 6 to 7 weeks were given 2.8% DSS (Yisheng Biotechnology Co., Ltd., Shanghai) to induce ulcerative colitis through drinking water, and the model was established continuously for 7 days. From the first day of modeling, 3 mg/kg of […] or 300 mg/kg of the positive drug mesalamine (5'-aminosalicylic acid, 5-ASA) was given by intragastric administration, and continued after the modeling 7 days. The model group was given the same volume of solvent every day. The normal control group was fed routinely without any treatment. From the first day of modeling, the animals in each group were weighed every day, and the health condition of the mice, appearance of feces and hematochezia were recorded. When the body weight of the mice lost more than 25% during the modeling process, the animals were euthanized in time. After 14 days of administration of […], mice in each group were sacrificed by vertebral dislocation. The colon was harvested, photographed and its length measured. The colon near the rectum was cut and stored in 4% paraformaldehyde ([…] Biotechnology Co., Ltd., Wuhan) for HE staining to observe the histopathological changes of the colon. Mesenteric lymph nodes were collected for flow cytometric detection of the proportion of Treg cells.

Treg cells = experiment: Syngeneic mouse CT26 tumor model (Treg activation and regeneration); assay type: in vivo; conditions: 100 mg/kg C52 oral QD
Experimental: BALB/c mice were subcutaneously inoculated with 1×10E6 CT26 cells. Mice were randomly assigned to each treatment group. The tumor size was measured with a caliper, and the tumor volume was calculated by the following formula: V=length×width 2×1/2. Tumor-bearing mice were orally administered with vehicle or 100 mg/kg […], QD. On the 13th day after tumor inoculation, vehicle- and […]-treated mice were given a single intraperitoneal injection of low-dose (50 mg/kg) cyclophosphamide (Sigma-Aldrich). Mice were euthanized before tumors reached 2.0 cm in longest dimension. Spleen and lymph node samples were collected for flow cytometric analysis.

A549 cells = experiment: Exosome release from lung cancer cells (NTA, Western blot); assay type: cell-based, human
Experimental: Human non-small cell lung cancer A549 cells and human pancreatic cancer PANC-1 cells were purchased from the Chinese Academy of Sciences Stem Cell Bank (Shanghai, China). […] Purification, characterization, and analysis of exosomes: To purify exosomes from cell culture supernatants, cells were cultured for 3 days in DMEM medium supplemented with 10% exosome-free FBS prepared by ultracentrifugation of regular FBS at 120,000 g for 16 h. Cell culture supernatants were collected and centrifuged at 500 g for 5 min and then at 2,000 g for 20 min to remove dead cells and cell debris. Then, large vesicles were removed by centrifugation at 12,000 g for 30 minutes. Crude exosomes were pelleted by ultracentrifugation of the supernatant at 110,000 g for 70 min (Backman Ti70), washed with PBS and filtered (0.2 μm). The pellet was then suspended and ultracentrifuged again at 110,000 g for 70 minutes. All ultracentrifugations were performed at 4° C. The size and number of exosomes were analyzed using an LM10 nanoparticle tracking system (NanoSight) equipped with a blue laser (405 nm). Transmission electron microscope (TEM) observation: The morphology of exosomes prepared from the culture supernatant was observed by transmission electron microscope (TEM). Exosome pellets were fixed overnight at 4° C. in 2% glutaraldehyde. Load a drop of 10 μL of the exosome suspension onto the Formvar/Carbon-coated TEM copper grid and let it stand for 20 min. Drain excess fluid. Samples were fixed with 1% uranyl acetate for 5 min, washed 8 times with double distilled water, and dried under incandescent lamp for 10 min, then examined with Tecnai G2 Spirit Bio TWIN transmission electron microscope (FEI, Hillsboro, USA, working voltage 120 kV). […] The lysate was centrifuged to remove insoluble material.

PANC-1 cells = experiment: Wound healing assay; assay type: cell-based, human; conditions: different concentrations of C52, 24 h, dose-dependent
Experimental: Wound healing assay: Cells were seeded in 6-well plates containing complete medium and cultured at 37° C. in a humidified air environment containing 5% CO2. […] Then, the cells were washed 3 times with PBS, and then incubated with serum-free RPMI-1640 medium containing different concentrations of […] for 24 h. The wound area and migrated cells within the wound area were photographed using a phase-contrast microscope. The wound area was measured using Image J software.

Huh7-NC12 cells = experiment: Exosome release from liver cancer cells (luciferase exosome reporter, ExoHTP platform); assay type: cell-based; conditions: 48 h, luciferase activity of exosomes purified from supernatant

Experimental for U87 cells: Western blotting: Exosomes from cultures in different conditions were collected and purified by a classical differential centrifugation protocol, and then lysed with PMSF-containing RIPA buffer (Beyond Biotechnology, Shanghai, China). The lysate was centrifuged to remove insoluble material. The concentration of protein was determined by enhanced BCA protein assay kit (Beyontian Biotechnology, Shanghai, China). 40 g of proteins were separated by sodium dodecyl sulfate-polyacrylamide gel electrophoresis (SDS-PAGE) and transferred to a polyvinylidene difluoride membrane (Merck Millipore). Membranes were blocked with 5% milk for 1 h and then incubated with primary antibodies overnight at 4° C. Membranes were washed 3 times and then incubated with secondary antibodies for 1 h at room temperature. Bands were detected by Gel Imaging System (Bio-Rad, USA) and measured by Image J. The primary antibodies used were rabbit anti-β-actin, GAPHD, CD63, CD9, TSG101 and vimentin (Abcam, UK).

SMILES: O=C(Nc1ccc(F)cc1)Nc1ccc(Nc2nc(/C=C/c3ccccc3)nc(N3CCOCC3)n2)cc1 [Compound C52]
- effect on the growth of cancer cells [1]: no effect
- effect on protein levels of vimentin and other signaling molecules involved in cell proliferation [2]: little or no effect
- disease activity index (DSS-induced colitis mice; vs vehicle): decreased
- histological score (DSS-induced colitis mice; vs vehicle): very significant reduction
- intestinal bleeding (DSS-induced colitis mice; vs vehicle): reduced
- shortened colon length (DSS-induced colitis mice; vs vehicle): marked improvement
- weight loss (DSS-induced colitis mice; vs vehicle): significantly less
- ratio of Treg to CD4+ T cells in the mesenteric lymph nodes (DSS-induced colitis mice; vs vehicle control): significantly higher
- tumor growth vs vehicle-treated control mice (Treg cells; BALB/c mice with CT26 tumors): grow faster
- regeneration of Treg in lymph nodes (Treg cells; day 29, 16 days after low-dose cyclophosphamide): significantly increased
- exosomes in culture supernatant (nanoparticle tracking analysis) (A549 cells; 1 μM C52 vs DMSO): significantly reduced
- intracellular exosome levels (A549 cells; Western blot, 0.1, 1 and 10 μM C52, 48 h): did not reduce
- content of exosomal markers (CD9, CD63, TSG101) in prepared exosome samples (A549 cells; Western blot, 0.1, 1 and 10 μM C52, 48 h, extracellular): significant reduction
- closure rate of the gap size (PANC-1 cells): significantly decreased
- inhibition of exosome release (Huh7-NC12 cells): comparable to that of the known exosome inhibitor GW4869; also recorded: effectively inhibit the release of exosomes
- inhibition of GFP signal increase (Pseudovirus-2019-nCoV): as strong as that by the positive control
- IC50 (Pseudovirus-2019-nCoV; read-out: IC50 of inhibition of pseudovirus infection): < 50 nM
- amount of exosomal markers CD9 and CD63 inside the cells (U87 cells): did not reduce
- extracellular levels of exosomal markers CD9 and CD63 (U87 cells): reduced
- CD9 in the cell culture medium (U87 cells; vimentin-knockdown U87 Vim+/- cells, 2 μM C52, 72 h): further reduction
